Test results taken from publication PMC8038501, “Bioactivity-Guided Isolation of Phytochemicals from Vaccinium dunalianum Wight and Their Antioxidant and Enzyme Inhibitory Activities” (Molecules, 2021).
Marks after values point to notes of the source that are not given here.

What was measured:
[1] = molecular target: α-glucosidase (Saccharomyces cerevisiae, UniProt P53341); assay: α-glucosidase inhibitory assay (PNPG substrate); type: biochemical
Procedure: The α-glucosidase inhibitory assay was performed as previously described with slight modifications. A 50 µL sample (20, 50, 100, 200, 400, 600 µg/mL) solution was added to the mixture of the α-glucosidase solution, phosphate buffer (100 µL, pH 6.8), and 50 µL of 10 mM PNPG in a 96-well microplate. Subsequently, the reaction mixture was incubated for 15 min at 37 °C. Then, sodium carbonate (50 µL, 0.2 M) was added to terminate the reaction. A blank was prepared for each sample without enzyme solution to correct the background absorbance (control). The absorbance (A) of the reaction mixture was measured at 405 nm by using a SpectraMax M5 microplate reader (Molecular Devices, Sunnyvale, CA, USA). The inhibitory percentage was determined as follows:Inhibition (%) = [(Acontrol − Asample)/Acontrol] × 100(1)

[2] = molecular target: T1, porcine pancreatic lipase (Sus scrofa, UniProt P00591); assay: pancreatic lipase inhibitory assay (p-nitrophenyl laurate substrate); type: biochemical; conditions: mean ± SD, three replicates; read-out: Enzyme Inhibition IC50 Pancreatic Lipase (converted)
T1 construct: purchased Sigma-Aldrich (Shanghai, China)
T1 sequence (P00591 1-450): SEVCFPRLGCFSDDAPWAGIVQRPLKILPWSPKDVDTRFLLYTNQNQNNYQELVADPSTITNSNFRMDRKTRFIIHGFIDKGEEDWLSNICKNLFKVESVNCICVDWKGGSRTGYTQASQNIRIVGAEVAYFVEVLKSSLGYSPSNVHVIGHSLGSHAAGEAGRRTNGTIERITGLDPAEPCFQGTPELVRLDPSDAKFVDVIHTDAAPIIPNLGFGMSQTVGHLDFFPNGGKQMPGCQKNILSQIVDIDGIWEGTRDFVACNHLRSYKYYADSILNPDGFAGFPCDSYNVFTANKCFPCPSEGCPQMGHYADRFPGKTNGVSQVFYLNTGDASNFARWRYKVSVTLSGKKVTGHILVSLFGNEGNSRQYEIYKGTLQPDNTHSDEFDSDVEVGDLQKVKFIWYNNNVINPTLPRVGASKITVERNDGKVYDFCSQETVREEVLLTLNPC
Procedure: The pancreatic lipase inhibitory assay was conducted as previously described with some modifications. First, the porcine pancreatic lipase solution was centrifuged to collect the supernatant enzyme at 4000 g for 5 min. The substrate solution was prepared with p-nitrophenyl laurate dissolved in 5 mM sodium acetate (1:100 m/v) and Triton X-100 (1:100 v/v). The substrate solution was placed in boiling water for 2 min to fully dissolve, and then cooled down to room temperature for the enzymatic assay. The sample was dissolved in DMSO (<5% in the final reaction reagents) and diluted with 100 mM Tris-buffer (pH 8.2). Samples of 50, 100, 200, 400, 600, and 800 µg/mL were prepared. Orlistat was used as a positive control. In the enzymatic assay, the test samples (100 µL) were mixed with Tris buffer (400 µL), substrate solution (350 µL), and pancreatic lipase (150 µL). The mixture was then incubated at 37 °C for 2 h and centrifugated at 4000 g for 3 min. The absorbance of the reaction mixture was measured at 400 nm by using a SpectraMax M5 microplate reader. The percent inhibition of pancreatic lipase activity was calculated by Equation (1).

[3] = DPPH free-radical scavenging assay; conditions: for Antioxidant Activity DPPH: mean ± SD, three replicates
Procedure: The DPPH free radical scavenging activity was carried out by the method previously described. Briefly, 2 mL of DPPH solution (0.1 mmol/L) was mixed with 0.5 mL of sample solutions or Trolox solution (100 μg/mL in methanol). Then, the mixture was incubated for 30 min in the dark at room temperature. Absorbance of the mixture was measured at 517 nm using a SpectraMax M5 microplate reader. DPPH radical scavenging activity of each extract was expressed as nmol Trolox equivalent (TE) per mg of extract (nmol TE/mg extract).

[4] = cited from earlier work
[5] = Ferric reducing/antioxidant power (FRAP) assay; conditions: for Antioxidant Activity FRAP: mean ± SD, three replicates
Procedure: The FRAP assay was conducted according to the procedure reported with slight modifications. The FRAP reagent was freshly prepared with 300 mM acetate buffer (pH 3.6), 10 mM TPTZ (2,4,6-tripyridyl-s-triazine), and 20 mM FeCl3-6H2O (10:1:1, v/v)]. A 0.5 mL of each sample (100 μg/mL) was mixed with 4.5 mL freshly prepared FRAP reagent. Then, the reaction mixture was incubated at 37 °C in the dark for 10 min. The absorbance of the mixture was recorded at 593 nm against a blank that was prepared using distilled water. Trolox was used as a control. The FRAP values were expressed as nmol Trolox equivalent (TE) per mg of extract (nmol TE/mg extract).

[6] = ABTS radical scavenging assay; conditions: for Antioxidant Activity ABTS: mean ± SD, three replicates
Procedure: The ABTS assay was performed according to the procedure described earlier. Briefly, 7 mM ABTS was added to 2.5 mM […] and the mixture was allowed to stand in the dark at room temperature for 16 h to obtain the ABTS radical solution. The ABTS solution was diluted with methanol with an absorbance of 0.70 ± 0.02 at 734 nm. After adding the 25 μL extract (100 μg/mL in methanol) to 200 μL ABTS solution, the absorbance was measured after 6 min at 734 nm by using a SpectraMax M5 microplate reader. Results were expressed as nmol Trolox equivalent (TE) per mg of extract (nmol TE/mg extract).

[7] = system: ɑ-glucosidase; design: method as in PMID 28832228; conditions: cited from earlier work

Sequence of α-glucosidase (P53341 whole entry): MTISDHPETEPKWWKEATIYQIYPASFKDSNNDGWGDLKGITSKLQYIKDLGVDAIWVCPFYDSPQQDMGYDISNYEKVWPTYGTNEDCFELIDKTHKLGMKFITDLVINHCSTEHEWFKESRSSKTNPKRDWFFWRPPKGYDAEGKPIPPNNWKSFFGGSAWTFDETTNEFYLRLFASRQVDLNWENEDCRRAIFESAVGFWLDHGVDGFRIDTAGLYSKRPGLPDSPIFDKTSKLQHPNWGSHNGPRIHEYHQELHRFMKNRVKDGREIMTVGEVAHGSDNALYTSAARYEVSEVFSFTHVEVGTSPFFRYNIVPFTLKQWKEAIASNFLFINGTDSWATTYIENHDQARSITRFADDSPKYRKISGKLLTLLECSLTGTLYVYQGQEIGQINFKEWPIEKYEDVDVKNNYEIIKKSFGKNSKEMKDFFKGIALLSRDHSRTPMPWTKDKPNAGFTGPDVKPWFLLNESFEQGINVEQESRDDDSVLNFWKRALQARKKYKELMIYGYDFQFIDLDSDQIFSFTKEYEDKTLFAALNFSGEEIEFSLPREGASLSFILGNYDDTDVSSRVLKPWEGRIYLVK

Row | Compound | α-glucosidase inhibition (in words) [1] | IC50 [2] [µM] | Antioxidant Activity DPPH [3] | effect on antioxidant activity (reported) [4] | Antioxidant Activity FRAP [5] | Antioxidant Activity ABTS [6] | ɑ-glucosidase inhibitory activities (reported) [7] | DPPH ([3]; unit in section 2.5) [nmol TE/g extract] | FRAP ([5]; unit in section 2.5) [nmol TE/g extract] | ABTS ([6]; unit in section 2.5) [nmol TE/g extract]
1 | O=c1c(OC2O[C@H](CO)[C@@H](O)[C@@H]2O)c(-c2ccc(O)c(O)c2)oc2cc(O)cc(O)c12 (stereo in doubt) [Compound 5, Quercetin-3-O-arabinofuranoside] | relatively weak inhibitory activity | 759 | 0.81 ± 0.17 ^h nmol Trolox equivalent/mg extract | positive effect on antioxidant activity |  |  |  |  |  | 
2 | OC[C@H]1O[C@@H](Oc2ccc(O)cc2)[C@H](O)[C@@H](O)[C@@H]1O [Compound 1, Arbutin] | relatively weak inhibitory activity | 1290 | 0.45 ± 0.02 ^e nmol Trolox equivalent/mg extract |  | 0.76 ± 0.01 ^d nmol Trolox equivalent/mg extract | 8.38 ± 3.74 ^efg nmol Trolox equivalent/mg extract |  |  |  | 
3 | O=C(/C=C/c1ccc(O)c(O)c1)OC[C@H]1O[C@@H](O)[C@H](O)[C@@H](O)[C@@H]1O [Compound 2, 6-O-E-Caffeoyl-D-glucopyranose] |  | 303 | 1.05 ± 0.11 ^h nmol Trolox equivalent/mg extract |  | 0.84 ± 0.01 ^e,f nmol Trolox equivalent/mg extract | 15.93 ± 1.65 ^ij nmol Trolox equivalent/mg extract |  |  |  | 
4 | O=C(O)/C=C/c1ccc(O)c(O)c1 [Compound 3, Caffeic acid] |  | 1310 | 0.39 ± 0.05 ^de nmol Trolox equivalent/mg extract | positive effect on antioxidant activity | 0.85 ± 0.01 ^ef nmol Trolox equivalent/mg extract | 3.86 ± 0.48 ^b nmol Trolox equivalent/mg extract |  |  |  | 
5 | COC(=O)/C=C/c1ccc(O)c(O)c1 [Compound 4, Caffeic acid methyl ester] |  | 1380 | 0.37 ± 0.01^d nmol Trolox equivalent/mg extract |  | 0.82 ± 0.01 ^e nmol Trolox equivalent/mg extract | 3.10 ± 1.07 ^b nmol Trolox equivalent/mg extract | good ɑ-glucosidase inhibitory activities |  |  | 
6 | CCOC(=O)/C=C/c1ccc(O)c(O)c1 [Compound 6, Caffeic acid ethyl ester] | relatively weak inhibitory activity | 1240 | 0.42 ± 0.03 ^e nmol Trolox equivalent/mg extract |  | 0.76 ± 0.01 ^d nmol Trolox equivalent/mg extract | 4.16 ± 0.25 ^b nmol Trolox equivalent/mg extract | good ɑ-glucosidase inhibitory activities |  |  | 
7 | O=C(/C=C/c1ccc(O)c(O)c1)OC[C@H]1O[C@@H](Oc2ccc(O)cc2)[C@H](O)[C@@H](O)[C@@H]1O [Compound 7, 6′-O-Caffeoylarbutin] |  | 225 | 1.21 ± 0.43 ^c nmol Trolox equivalent/mg extract |  | 0.87 ± 0.01 ^f nmol Trolox equivalent/mg extract | 16.96 ± 0.95 ^j nmol Trolox equivalent/mg extract |  | 1.21 ± 0.43 | 0.87 ± 0.01 | 16.96 ± 0.95
8 | O=C(/C=C/c1ccc(O)cc1)OC[C@H]1O[C@@H](Oc2ccc(O)cc2)[C@H](O)[C@@H](O)[C@@H]1O [Compound 8, Robustaside A] | relatively weak inhibitory activity | 741 | 0.41 ± 0.06 ^e nmol Trolox equivalent/mg extract |  | 0.49 ± 0.01 ^b nmol Trolox equivalent/mg extract | 4.71 ± 0.23 ^c nmol Trolox equivalent/mg extract |  |  |  | 
9 | O=c1c(O[C@@H]2O[C@H](CO)[C@@H](O)[C@H](O)[C@H]2O)c(-c2ccc(O)cc2)oc2cc(O)cc(O)c12 [Compound 9, Kaempferol-3-O-β-D-glucopyranoside] | relatively weak inhibitory activity | 778 | 0.35 ± 0.01 ^cd nmol Trolox equivalent/mg extract | positive effect on antioxidant activity |  | 6.38 ± 0.34 ^e nmol Trolox equivalent/mg extract |  |  |  | 
10 | O=C(O)c1ccc(O)cc1 [Compound 10, p-Hydroxybenzoic acid] | relatively weak inhibitory activity | 2220 | 1.12 ± 0.23 ^h nmol Trolox equivalent/mg extract |  | 0.87 ± 0.01 ^f nmol Trolox equivalent/mg extract |  |  |  |  | 
